Where two headings read alike, the source gives them in different places.
Test system: S. aureus Oxford, S. aureus WCUH29, S. aureus Carter 37, E. faecalis I, M. catarrhalis Ravasio, S. pneumoniae R6
Test: MIC of test compounds against various organisms
Type: cell-based
Details: against one or more of S. aureus Oxford
Protocol: The MIC (μg/ml) of test compounds against various organisms was determined: S. aureus Oxford, S. aureus WCUH29, S. aureus Carter 37, E. faecalis I, M. catarrhalis Ravasio, S. pneumoniae R6.

Row | SMILES | MIC | MIC (read-out: MIC)
1 | CCCCCCCN1CCN(CC(O)c2ccnc3ccc(OC)cc23)[C@@H](CCO)C1.O=C(O)C(=O)O.O=C(O)C(=O)O (stereo partly drawn) [Example 12, [3S]-1-Heptyl-3-[2-hydroxyetbyl]-4-[2-(R,S)hydroxy-2-(6-methoxyquinolin-4-yl)ethyl]piperazine dioxalate] | less than or equal to 1 μg/ml | 
2 | CCCCCCCN1CCN(C[C@H](O)c2ccnc3ccc(OC)cc23)[C@H](CC(=O)O)C1.O=C(O)C(F)(F)F.O=C(O)C(F)(F)F.O=C(O)C(F)(F)F [Example 11, [3R]-3-Carboxymethyl-1-heptyl-4-[2-(R)-hydroxy-2-(6-methoxyquinolin-4-yl)ethyl]piperazine tris(trifluoroacetate)] |  | ≤ 16 µg/mL
3 | COc1ccc2nccc([C@@H](O)CN3CCN(CCCOc4ccccc4)CC3)c2c1 [Example 33, 1-(3-phenoxypropyl)-4-[2-(R)-hydroxy-2-(6-methoxyquinolin-4-yl)ethyl]piperazine] |  | ≤ 16 µg/mL

— patent US6911442B1, “Quinoline derivatives as antibacterials” (SmithKline Beecham p.l.c., priority 1999, dated 2005)
